The record followed here is publication PMC9585585, “Discovery of Small-Molecule Allosteric Inhibitors of PfATC as Antimalarials” (Journal of the American Chemical Society, 2022).

Values joined by “and” are separate entries in the source; they are usually repeats but may differ in a detail not shown here. Equal entries are not always repeated. Where two headings read alike, the source gives them in different places.

Series [1] has as its target T1, HsATC (Homo sapiens, UniProt P27708).
T1 construct: ATCase domain of CAD; made in house; host or cells: E. coli BL21 star
T1 sequence (P27708 1918-2225 limits assumed): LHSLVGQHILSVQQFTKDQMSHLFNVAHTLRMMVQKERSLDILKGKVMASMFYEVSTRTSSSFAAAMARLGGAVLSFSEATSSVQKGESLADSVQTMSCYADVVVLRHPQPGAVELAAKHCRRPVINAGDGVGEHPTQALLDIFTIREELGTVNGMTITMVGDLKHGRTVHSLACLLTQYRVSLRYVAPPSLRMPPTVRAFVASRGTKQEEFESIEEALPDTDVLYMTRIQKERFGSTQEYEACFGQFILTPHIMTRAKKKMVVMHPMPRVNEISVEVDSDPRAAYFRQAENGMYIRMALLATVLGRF
Briefly: HsATC activity assay. The class given is biochemical. As to conditions: in vitro activity assay. Here is the method: 417100μL of stop mix (two volumes of Antipyrine (26.5 mM 2,3-Dimethyl-1-phenyl-3-pyrazolin-5-
418one in 50% (v/v) sulfuric acid) and one volume of 2,3-Butanedione monoxime (80 mM 2,3-
419Butanedione monoxime in 5% (v/v) acetic acid). After plates were sealed with transparent sealing
420tape to prevent evaporation and incubated overnight in the dark place at room temperature. After
421incubation, the plates were heated at 95 °C for 15 min in dark place, and kept for 30 min before
422measuring at 466 nm suing a Synergy H1 Hybrid Reader (BioTek). Analyses were performed using
423Microsoft Excel and Graph Pad Prism.
424HsATC activity assay. The enzymatic assay was performed as described herein above for
425enzymatic assay of PfATC with minor modifications. Briefly, the reaction was carried out at room
426temperature in a total volume of 150 μl of 10 mM L-aspartate and 5 mM carbamoyl phosphate
427saturated substrate solution in 50 mM Tris-Acetate buffer pH 8.3. hsATC was pre-incubated with
428inhibitor and L-Asp for 10 min at room temperature on a shaker. The reaction was initiated by
429adding CP and stopped after 5 min with […] color mix. Then the plate was covered by sealing
430tape and kept in dark place at room temperature and then heated to 95 °C for 15min in dark and kept
431the plate in the dark for another 30 min before measuring the absorbance at 466 nm suing a Synergy
432H1 Hybrid Reader (BioTek). […]

The test system of series [2] is HepG2 cells. Briefly: Cytotoxicity on cultured human HepG2 cells. As to conditions: at a concentration of 100 μM. The class given is cell-based.
Series [3] relates to P. falciparum 3D7. Kind of series: Growth-inhibition assay of P. falciparum (SYBR Green I). The class given is cell-based, Plasmodium falciparum. As to conditions: P. falciparum 3D7, 96 h, read-out: EC50 against blood stage 3D7 cultures. Here is the method: 488Cell culture and growth-inhibition assay of P. falciparum. P. falciparum 3D7 parasites
489(Wellcome Trust Dundee) were maintained in continuous culture at 37 °C and an atmosphere
490consisting of 90% N 2, 5% O2, and 5% CO2 as described previously 30 with modifications.31
491Parasites were maintained in 25 mM 4-(2-hydroxyethyl)-1-piperazineethanesulfonic acid (HEPES)
492and 11.9 mM sodium bicarbonate buffered RPMI 1640 medium supplemented with D-glucose
493(11 mM), hypoxanthine, AlbuMAX-I (0.5% w/v), and 10 µg/mL gentamicin. 0+ blood was
494provided by “Hospital Novo Atibaia” (Brazil) in agreement with the ethics committee at ICB-USP.
495Compounds were tested for their inhibitory effect against P. falciparum 3D7 conducting SYBR
496Green I (Invitrogen) drug assays as reported. 32, 33 Briefly, two-fold serial dilutions of compounds
497were prepared in 96-well plates starting from 100 and 20 µM in technical triplicate and incubated
498for 96 h under normal growth conditions using an initial parasitemia of 0.5% and a hematocrit of
4992% in a volume of 100 µL per well. Parasite proliferation was measured by quantifying DNA via
500SYBR Green I emitted fluorescence in the wells after addition of 100 µL lysis buffer supplemented
501with SYBR Green I (0.02% v/v) and incubation for 1 h at room temperature in the dark.
502Fluorescence was quantified using a CLARIOstar plate reader (BMG Labtech, Germany) at
503excitation and emission wavelength bands of 485 (± 9) and 530 (± 12) nm, respectively. Focal and
504gain adjustment was performed using the negative controls (highest expected fluorescence signal).
505Data was acquired via the CLARIOstar (V5.20) and MARS software, manually normalized, and
506plotted using the nonlinear regression curve fit implemented in GraphPad Prism as described below
507in more detail. Non-treated parasites, highest solvent concentration on parasites, and highest drug
508concentration in medium were used as controls for maximal growth, solvent control, and native
509drug fluorescence, respectively.
511Nonlinear regression fit and analysis of dose-response drug assays. Nonlinear regression as
512implemented in GraphPad Prism 8.4.3 (log(inhibitor) vs. response – Variable slope (four
513parameters)) was used to fit the measured data to interpolate the IC 50 value from the curve. No
514specific model was applied. Data was pre-processed by min-max-scaling according to the
517where y is the fluorescence signal in each well, y minimum the background fluorescence, and ymaximum
518the highest measured fluorescence signal in the untreated wells. Drug concentrations (in µM) were
519transformed to the log(10)of the values. Means of each independent experiment were plotted as
520individual values, and the SD of the mean from the means shown as error bars. The test for
521homoscedasticity was performed to confirm if no weighting of values was appropriate.

The mark [4] stands for this setting: 10 mM L-aspartate, 5 mM carbamoyl phosphate, read-out: HsATC IC50.

What is called IC50 is the midpoint of a concentration-inhibition curve. For orientation: EC50 means the concentration at which the effect is half-maximal. As to `CC(C)(C)OC(=O)Nc1sc(-c2ccccc2)cc1C(=O)NCCc1ccccc1` [BDA-04], the IC50 in series [1] (setting [4]) was 2.84 µM; in series [1] (n = 3, read-out: IC50 against HsATC) it was 2.8 µM and 2.84 µM. The “cytotoxic effect on cultured human HepG2 cells” value in series [2] is “no cytotoxic effect”. The EC50 turned out to be 2.43 µM in series [3] and 2.4 µM in series [3] (Plasmodium falciparum, 3D7, 96 h).
Regarding `CC(C)(C)OC(=O)Nc1sc(-c2ccccc2)cc1C(=O)NCCc1ccc(O)cc1` [BDA-11], in series [1] (setting [4]), the IC50 came out at 0.116 µM. The EC50 in series [3] was 3.4 µM and 3.37 µM.
As to `CC(C)(C)OC(=O)Nc1sc(-c2ccccc2)cc1C(=O)NCCO` [BDA-14], the concentration for half-maximal inhibition (IC50) in series [1] (setting [4]) worked out at 0.137 µM. Besides, the half-maximal effective concentration (EC50) in series [3] was 42.5 µM.
Regarding `COc1cccc(CCNC(=O)c2cc(-c3ccccc3)sc2NC(=O)OC(C)(C)C)c1` [BDA-24], the 50% inhibitory concentration (IC50) in series [1] (setting [4]) came to 0.316 µM. Also, the EC50 in series [3] was 2 µM and 2.03 µM.
